# In patent US20100137346A1, “DESFE[…] ACTINIDE DEC[…]” (priority 2006, published 2010):
# Like-named read-outs stand apart in the source and are kept apart here.
# Assay: Chelator-induced uranium excretion (urine + bile, 24 h) in bile duct-cannulated rat model
# Format: in vivo
# Details: for uranium clearance, in words: given IP immediately post uranyl acetate, doses per Table 1
# Experimental: Desferrithiocin Analogue Induced Excretion of Uranium. In order to compare results with previous chelator-induced iron excretion data, the uranium clearance studies were carried out in a bile duct-cannulated rat model. The animals were given uranyl acetate dihydrate SC at a dose of 5 mg/kg (the actual dose of uranium is 2.8 mg/kg). Bile and urine samples were collected for 24 hours after dosing. Kidneys were removed from selected animals and tissue uranium concentration measured. At least three animals were utilized in each experimental group. Data from two separate control studies (uranyl acetate/ no chelator) have now been combined for a total of 14 control animals. All uranium concentrations were measured using ICPMS. The data are reported as the total quantity of uranium excreted [urine +bile]; the mode of excretion [urine/bile] is also given. In addition the percentage of the administered dose of uranium cleared and chelator-induced uranium excretion vs the controls is also given. Four positive controls were evaluated: DTPA (13, Table 1) given as its trisodium calcium salt, DFO (14), N,N′-bis(2hydroxybenzyl)ethylenediamine-N,N′-diacetic acid, monosodium salt (NaHBED, 15) and the hydroxypyridone CP94 (16) shown to bind uranium [Pashalidis, et al., Effective complex formation in the interaction of 1,2-dimethyl-3-hydroxypyrid-4-one (Deferiprone or L1) with uranium(VI), Journal of Radioanalytical and Nuclear Chemistry 1999; 242:181-184.] The total metal cleared after 24 h in control rats was 10% of the administered dose. When DTPA, 13, was given IP or PO at 300 μmol/kg immediately after uranium, the excretion was 17% and 8% of the administered dose respectively (p>0.05). However, when the drug was given IP at a dose of 600 μmol/kg immediately post-metal, the uranium excretion was significant, 20% (p<0.005). This is consistent with previously published data using a similar animal model.[Domingo, et al., Comparative effects of the chelators sodium 4,5-dihydroxybenzene-1,3-disulfonate (Tiron) and diethylenetriaminepentaacetic acid (DTPA) on acute uranium nephrotoxicity in rats, Toxicology 1997; 118:49-59] DFO (14) and CP94 (16) given IP immediately post uranyl acetate were ineffective.
# Desferrithiocin Analogue-Induced Excretion of Uranium. In order to compare results with previous chelator-induced iron excretion data, the uranium clearance studies were carried out in a bile duct-cannulated rat model. The animals were given uranyl acetate dihydrate SC at a dose of 5 mg/kg (the actual dose of uranium is 2.8 mg/kg). Bile and urine samples were collected for 24 hours after dosing. Kidneys were removed from selected animals and tissue uranium concentration measured. At least three animals were utilized in each experimental group. Data from two separate control studies (uranyl acetate/ no chelator) are combined for a total of 14 control animals. All uranium concentrations were measured using ICPMS. The data are reported as the total quantity of uranium excreted [urine +bile]; the mode of excretion [urine/bile] is also given. In addition the percentage of the administered dose of uranium cleared and chelator-induced uranium excretion vs the controls is also given. Four positive controls were evaluated: DTPA (1, Table 1) given as its trisodium calcium salt, DFO (2), N,N -bis(2-hydroxybenzyl)ethylenediamine-N,N-diacetic acid, monosodium salt (NaHBED, 3) and the hydroxypyridone CP94 (4) shown to bind uranium. The total metal cleared after 24 h in control rats was 10% of the administered dose. When DTPA, 1, was given IP or PO at 300 μmol/kg immediately after uranium, the excretion was 17% and 8% of the administered dose respectively (p>0.05). However, when the drug was given IP at a dose of 600 μmol/kg immediately post metal, the uranium excretion was significant, 20% (p<0.005). This is consistent with previously published data using a similar animal model.^2 DFO (2) and CP94 (4) given IP immediately post uranyl acetate were ineffective.
# [1] = Rattus norvegicus, ip, 24 h, 300 μmol/kg IP Immediate, read-out: Chelator-Induced U Excretion/Control
# [2] = Rattus norvegicus, ip, 24 h, 300 μmol/kg IP 0.5 h Post, read-out: Chelator-Induced U Excretion/Control
# [3] = Rattus norvegicus, po, 24 h, 300 μmol/kg PO Immediate, read-out: Chelator-Induced U Excretion/Control
smiles,measurement,setting,value
CC(=O)N(O)CCCNC(=O)CCC(=O)N(O)CCCCCNC(=O)CCC(=O)N(O)CCCN,% of Administered Dose Cleared,300 μmol/kg IP Immediate,16%
same,Uranium Excretion,300 μmol/kg IP Immediate,438 ± 191 µg/kg
same,Uranium Excretion [urine/bite],300 μmol/kg IP Immediate,100/0
same,response vs control in vivo at 300 µmol/kg,[1],160%
COCCOCCOCCOc1ccc(C2=N[C@](C)(C(=O)O)CS2)c(O)c1,% of Administered Dose Cleared,300 μmol/kg IP Immediate,22%
same,Uranium Excretion,300 μmol/kg IP Immediate,626 ± 123 µg/kg
same,Uranium Excretion [urine/bite],300 μmol/kg IP Immediate,35/65
same,response vs control in vivo at 300 µmol/kg,[1],220%
COc1ccc(C2=N[C@H](C(=O)O)CS2)c(O)c1,% of Administered Dose Cleared,300 μmol/kg IP 0.5 h Post,33%
same,Uranium Excretion,300 μmol/kg IP 0.5 h Post,917 ± 177 µg/kg
same,Uranium Excretion [urine/bite],300 μmol/kg IP 0.5 h Post,16/84
same,% of Administered Dose Cleared,300 μmol/kg IP 0.5 h Pre,29%
same,Uranium Excretion,300 μmol/kg IP 0.5 h Pre,815 ± 211 µg/kg
same,Uranium Excretion [urine/bite],300 μmol/kg IP 0.5 h Pre,48/52
same,% of Administered Dose Cleared,300 μmol/kg IP 2 h Post,30%
same,Uranium Excretion,300 μmol/kg IP 2 h Post,847 ± 335 µg/kg
same,Uranium Excretion [urine/bite],300 μmol/kg IP 2 h Post,46/54
same,% of Administered Dose Cleared,300 μmol/kg IP 4 h Post,16%
same,Uranium Excretion,300 μmol/kg IP 4 h Post,444 ± 119 µg/kg
same,Uranium Excretion [urine/bite],300 μmol/kg IP 4 h Post,66/34
same,% of Administered Dose Cleared,300 μmol/kg IP Immediate,30%
same,Uranium Excretion,300 μmol/kg IP Immediate,838 ± 166 µg/kg
same,Uranium Excretion [urine/bite],300 μmol/kg IP Immediate,64/36
same,% of Administered Dose Cleared,300 μmol/kg PO 2 h Post,18%
same,Uranium Excretion,300 μmol/kg PO 2 h Post,507 ± 182 µg/kg
same,Uranium Excretion [urine/bite],300 μmol/kg PO 2 h Post,53/47
same,% of Administered Dose Cleared,300 μmol/kg PO Immediate,23%
same,Uranium Excretion,300 μmol/kg PO Immediate,642 ± 101 µg/kg
same,Uranium Excretion [urine/bite],300 μmol/kg PO Immediate,43/57
same,% of Administered Dose Cleared,300 μmol/kg SC Immediate,40%
same,Uranium Excretion,300 μmol/kg SC Immediate,1130 ± 246 µg/kg
same,Uranium Excretion [urine/bite],300 μmol/kg SC Immediate,13/87
same,% of Administered Dose Cleared,600 μmol/kg PO 0.5 h Post,25%
same,Uranium Excretion,600 μmol/kg PO 0.5 h Post,698 ± 166 µg/kg
same,Uranium Excretion [urine/bite],600 μmol/kg PO 0.5 h Post,24/76
same,% of Administered Dose Cleared,600 μmol/kg PO 1 h Post,26%
same,Uranium Excretion,600 μmol/kg PO 1 h Post,723 ± 126 µg/kg
same,Uranium Excretion [urine/bite],600 μmol/kg PO 1 h Post,28/72
same,response vs control in vivo at 300 µmol/kg,[2],330%
same,response vs control in vivo at 300 µmol/kg,"Rattus norvegicus, ip, 24 h, 300 μmol/kg IP 0.5 h Pre, read-out: Chelator-Induced U Excretion/Control",290%
same,response vs control in vivo at 300 µmol/kg,"Rattus norvegicus, ip, 24 h, 300 μmol/kg IP 2 h Post, read-out: Chelator-Induced U Excretion/Control",300%
same,response vs control in vivo at 300 µmol/kg,"Rattus norvegicus, ip, 24 h, 300 μmol/kg IP 4 h Post, read-out: Chelator-Induced U Excretion/Control",160%
same,response vs control in vivo at 300 µmol/kg,[1],300%
same,response vs control in vivo at 300 µmol/kg,"Rattus norvegicus, po, 24 h, 300 μmol/kg PO 2 h Post, read-out: Chelator-Induced U Excretion/Control",180%
same,response vs control in vivo at 300 µmol/kg,[3],230%
same,response vs control in vivo at 600 µmol/kg,"Rattus norvegicus, po, 24 h, 600 μmol/kg PO 0.5 h Post, read-out: Chelator-Induced U Excretion/Control",250%
same,response vs control in vivo at 600 µmol/kg,"Rattus norvegicus, po, 24 h, 600 μmol/kg PO 1 h Post, read-out: Chelator-Induced U Excretion/Control",260%
same,response vs control in vivo at 300 µmol/kg,"Rattus norvegicus, sc, 24 h, 300 μmol/kg SC Immediate, read-out: Chelator-Induced U Excretion/Control",400%
COc1ccc(C2=N[C@](C)(C(=O)O)CS2)c(O)c1,% of Administered Dose Cleared,300 μmol/kg IP 0.5 h Post,15%
same,Uranium Excretion,300 μmol/kg IP 0.5 h Post,413 ± 148 µg/kg
same,Uranium Excretion [urine/bite],300 μmol/kg IP 0.5 h Post,37/63
same,% of Administered Dose Cleared,300 μmol/kg IP Immediate,20%
same,Uranium Excretion,300 μmol/kg IP Immediate,568 ± 133 µg/kg
same,Uranium Excretion [urine/bite],300 μmol/kg IP Immediate,59/41
same,response vs control in vivo at 300 µmol/kg,[2],150%
same,response vs control in vivo at 300 µmol/kg,[1],200%
"CC1(C)SC(c2ccccc2O)=NC1C(=O)O (stereo in doubt) [Compound 17, (S)-4,5-dihydro-5,5-dimethyl-2-(2-hydroxyphenyl)-4-thiazolecarboxylic acid]",% of Administered Dose Cleared,300 μmol/kg IP Immediate,26%
same,"uranium excretion, in words","IP 300 μmol/kg, given 0.5 h post metal",insignificant
"CCC1=C(O)C(=O)CCN1CC [CP94, reference compound]","uranium clearance, in words",,ineffective
"O=C([O-])CN(CCN(CC(=O)O)Cc1ccccc1O)Cc1ccccc1O.[Na+] [NaHBED, N,N′-bis(2hydroxybenzyl)ethylenediamine-N,N′-diacetic acid, monosodium salt, reference compound]","uranium clearance, in words",,marginally improved clearance
O=C(O)CN(CCN(CC(=O)O)CC(=O)O)CCN(CC(=O)O)CC(=O)O [drawing 4],% of Administered Dose Cleared,300 μmol/kg IP Immediate,17%
same,Uranium Excretion,300 μmol/kg IP Immediate,469 ± 271 µg/kg
same,Uranium Excretion [urine/bite],300 μmol/kg IP Immediate,99/1
same,% of Administered Dose Cleared,300 μmol/kg PO Immediate,6%
same,Uranium Excretion,300 μmol/kg PO Immediate,235 ± 205 µg/kg
same,Uranium Excretion [urine/bite],300 μmol/kg PO Immediate,[100/0]
same,% of Administered Dose Cleared,600 μmol/kg IP Immediate,20%
same,Uranium Excretion,600 μmol/kg IP Immediate,546 ± 147 µg/kg
same,Uranium Excretion [urine/bite],600 μmol/kg IP Immediate,[100/0]
same,response vs control in vivo at 300 µmol/kg,[1],170%
same,response vs control in vivo at 600 µmol/kg,"Rattus norvegicus, ip, 24 h, 600 μmol/kg IP Immediate, read-out: Chelator-Induced U Excretion/Control",200%
same,response vs control in vivo at 300 µmol/kg,[3],80%
O=C([O-])CN(CCN(CC(=O)O)Cc1ccccc1O)Cc1ccccc1O.[Na+] [drawing 6],% of Administered Dose Cleared,150 μmol/kg IP Immediate,17%
same,Uranium Excretion,150 μmol/kg IP Immediate,483 ± 119 µg/kg
same,Uranium Excretion [urine/bite],150 μmol/kg IP Immediate,97/3
same,response vs control in vivo at 150 µmol/kg,"Rattus norvegicus, ip, 24 h, 150 μmol/kg IP Immediate, read-out: Chelator-Induced U Excretion/Control",170%
CCC1=C(O)C(=O)CCN1CC [drawing 7],% of Administered Dose Cleared,450 μmol/kg IP Immediate,11%
same,Uranium Excretion,450 μmol/kg IP Immediate,302 ± 171 µg/kg
same,Uranium Excretion [urine/bite],450 μmol/kg IP Immediate,100/0
same,response vs control in vivo at 450 µmol/kg,"Rattus norvegicus, ip, 24 h, 450 μmol/kg IP Immediate, read-out: Chelator-Induced U Excretion/Control",110%
COc1ccc(C2=N[C@@](C)(C(=O)O)CS2)c(O)c1 [drawing 8],% of Administered Dose Cleared,300 μmol/kg IP 0.5 h Post,15%
same,Chelator-Induced U Excretion/Control,300 μmol/kg IP 0.5 h Post,1.5
same,Uranium Excretion,300 μmol/kg IP 0.5 h Post,413 ± 148 µg/kg
same,Uranium Excretion [urine/bite],300 μmol/kg IP 0.5 h Post,[37/63]
same,Chelator-Induced U Excretion/Control,300 μmol/kg IP Immediate,2.0
same,Uranium Excretion,300 μmol/kg IP Immediate,568 ± 133 µg/kg
same,Uranium Excretion [urine/bite],300 μmol/kg IP Immediate,59/41
CC1(C)SC(c2ccccc2O)=N[C@@H]1C(=O)O [drawing 9],% of Administered Dose Cleared,300 μmol/kg IP 0.5 h Post,7%
same,Uranium Excretion,300 μmol/kg IP 0.5 h Post,200 ± 47 µg/kg
same,Uranium Excretion [urine/bite],300 μmol/kg IP 0.5 h Post,[37/63]
same,% of Administered Dose Cleared,300 μmol/kg IP Immediate,26%
same,Uranium Excretion,300 μmol/kg IP Immediate,743 ± 189 µg/kg
same,Uranium Excretion [urine/bite],300 μmol/kg IP Immediate,8/92
same,response vs control in vivo at 300 µmol/kg,[2],70%
same,response vs control in vivo at 300 µmol/kg,[1],260%
C[C@@]1(C(=O)O)CSC(c2ccc(O)cc2O)=N1 [drawing 10],% of Administered Dose Cleared,300 μmol/kg IP Immediate,19%
same,Uranium Excretion,300 μmol/kg IP Immediate,523 ± 180 µg/kg
same,Uranium Excretion [urine/bite],300 μmol/kg IP Immediate,92/8
same,response vs control in vivo at 300 µmol/kg,[1],190%
